Legend:
[1] = target: Cytochrome P450 2D6 (Homo sapiens, UniProt P10635); assay: Inhibition of CYP2D6; format: ADME; settings: read-out: IC50
[2] = target: 72 kDa type IV collagenase (Homo sapiens, UniProt P08253); assay: Inhibition of MMP2 using Mca-Pro-cyclohexyl-Ala-Gly-Nva-His-Ala- Dap(Dnp)-NH2 as substrate by fluorometric analysis; settings: read-out: IC50
[3] = tested on: Hepatocyte; assay: Intrinsic clearance in Sprague-Dawley rat hepatocytes assessed per 10^6 cells; format: ADME, cell-based
[4] = target: Cytochrome P450 2C9 (Homo sapiens, UniProt P11712); assay: Inhibition of CYP2C9; format: ADME; settings: read-out: IC50
[5] = tested on: Rattus norvegicus; assay: Oral bioavailability in rat; format: ADME, organism-based; settings: in vivo
[6] = target: Matrix metalloproteinase-14 (Homo sapiens, UniProt P50281); assay: Inhibition of MMP14 using Mca-Pro-cyclohexyl-Ala-Gly-Nva-His-Ala- Dap(Dnp)-NH2 as substrate by fluorometric analysis; settings: read-out: IC50
[7] = Lipophilicity, log D of the compound; settings: octanol/water
[8] = Cytotoxicity in mouse spleen macrophages assessed as phospholipidosis; settings: Macrophage
[9] = Fraction unbound in dog; format: ADME, organism-based, Canis lupus familiaris; settings: in vivo
[10] = Fraction unbound in rat; format: ADME, organism-based; settings: in vivo
[11] = Oral bioavailability in dog; format: ADME, organism-based, Canis lupus familiaris; settings: in vivo
[12] = target: Macrophage metalloelastase (Homo sapiens, UniProt P39900); assay: Inhibition of MMP12 using Mca-Pro-cyclohexyl-Ala-Gly-Nva-His-Ala- Dap(Dnp)-NH2 as substrate by fluorometric analysis; settings: read-out: IC50
[13] = Half life in dog at 1 mg/kg, iv and 1 mg/kg, po; format: ADME, organism-based, Canis lupus familiaris; settings: in vivo
[14] = Apparent permeability across apical to basolateral side in human Caco2 cells at 10 uM; format: ADME, cell-based; settings: Caco-2
[15] = Clearance in dog at 1 mg/kg, iv and 1 mg/kg, po; format: ADME, organism-based, Canis lupus familiaris; settings: in vivo
[16] = target: T1, Interstitial collagenase (Homo sapiens, UniProt P03956); assay: Inhibition of MMP1 using Mca-Pro-cyclohexyl-Ala-Gly-Nva-His-Ala- Dap(Dnp)-NH2 as substrate by fluorometric analysis
T1 sequence (P03956 whole entry): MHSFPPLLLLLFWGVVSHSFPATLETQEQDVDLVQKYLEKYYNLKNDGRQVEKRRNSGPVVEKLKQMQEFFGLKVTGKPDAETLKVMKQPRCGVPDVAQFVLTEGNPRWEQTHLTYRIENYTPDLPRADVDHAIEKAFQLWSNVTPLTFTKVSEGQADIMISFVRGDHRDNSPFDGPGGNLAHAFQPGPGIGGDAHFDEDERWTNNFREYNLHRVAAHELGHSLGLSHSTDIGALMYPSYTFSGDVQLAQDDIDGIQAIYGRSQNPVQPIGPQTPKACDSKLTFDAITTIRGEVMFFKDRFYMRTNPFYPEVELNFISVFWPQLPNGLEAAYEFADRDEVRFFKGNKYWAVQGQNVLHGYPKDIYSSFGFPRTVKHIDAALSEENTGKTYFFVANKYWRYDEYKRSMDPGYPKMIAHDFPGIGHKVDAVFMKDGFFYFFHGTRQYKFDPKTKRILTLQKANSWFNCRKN

[17] = Volume of distribution at steady state in dog at 1 mg/kg, iv and 1 mg/kg, po; format: ADME, organism-based, Canis lupus familiaris; settings: in vivo, read-out: Vdss
[18] = Apparent permeability across basolateral to apical side in human Caco2 cells at 10 uM; format: ADME, cell-based; settings: Caco-2
[19] = target: Matrix metalloproteinase-9 (Homo sapiens, UniProt P14780); assay: Inhibition of MMP9 using Mca-Pro-cyclohexyl-Ala-Gly-Nva-His-Ala- Dap(Dnp)-NH2 as substrate by fluorometric analysis; settings: read-out: IC50
[20] = Intrinsic clearance in human hepatocytes assessed per 10^6 cells; format: ADME, cell-based, Hepatocyte; settings: read-out: CLH
[21] = Fraction unbound in human; format: ADME, organism-based; settings: in vivo
[22] = target: T2, Matrix metalloproteinase-19 (Homo sapiens, UniProt Q99542); assay: Inhibition of MMP19 using Mca-Pro-cyclohexyl-Ala-Gly-Nva-His-Ala- Dap(Dnp)-NH2 as substrate by fluorometric analysis
T2 sequence (Q99542 whole entry): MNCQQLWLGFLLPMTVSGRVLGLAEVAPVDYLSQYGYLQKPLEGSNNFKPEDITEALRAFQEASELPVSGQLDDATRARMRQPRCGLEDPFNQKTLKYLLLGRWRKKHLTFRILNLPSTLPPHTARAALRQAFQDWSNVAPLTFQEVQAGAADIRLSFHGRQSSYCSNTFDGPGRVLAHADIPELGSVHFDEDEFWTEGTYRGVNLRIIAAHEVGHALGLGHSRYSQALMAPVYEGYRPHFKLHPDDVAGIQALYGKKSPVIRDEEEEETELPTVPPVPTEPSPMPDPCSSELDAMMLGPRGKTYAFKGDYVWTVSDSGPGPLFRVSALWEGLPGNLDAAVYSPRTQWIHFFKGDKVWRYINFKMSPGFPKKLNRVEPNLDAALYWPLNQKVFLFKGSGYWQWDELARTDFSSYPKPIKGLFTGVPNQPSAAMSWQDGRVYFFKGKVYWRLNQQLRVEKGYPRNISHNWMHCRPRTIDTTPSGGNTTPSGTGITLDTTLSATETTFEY

[23] = Half life in rat at 2 mg/kg, iv; format: ADME, organism-based; design: dose 2 mg/kg, route intravenous; settings: in vivo
[24] = Renal elimination in rat at 2 mg/kg, iv; format: ADME, organism-based; design: dose 2 mg/kg, route intravenous; settings: urine, read-out: Ae
[25] = target: Cytochrome P450 3A4 (Homo sapiens, UniProt P08684); assay: Inhibition of CYP3A4; format: ADME; settings: read-out: IC50
[26] = Volume of distribution at steady state in rat at 2 mg/kg, iv; format: ADME, organism-based; design: dose 2 mg/kg, route intravenous; settings: in vivo, read-out: Vdss
[27] = target: Cytochrome P450 2C19 (Homo sapiens, UniProt P33261); assay: Inhibition of CYP2C19; format: ADME; settings: read-out: IC50
[28] = Thermodynamic solubility of the compound
[29] = target: Stromelysin-1 (Homo sapiens, UniProt P08254); assay: Inhibition of MMP3 using Mca-Pro-cyclohexyl-Ala-Gly-Nva-His-Ala- Dap(Dnp)-NH2 as substrate by fluorometric analysis
Stromelysin-1, sequence (P08254 whole entry): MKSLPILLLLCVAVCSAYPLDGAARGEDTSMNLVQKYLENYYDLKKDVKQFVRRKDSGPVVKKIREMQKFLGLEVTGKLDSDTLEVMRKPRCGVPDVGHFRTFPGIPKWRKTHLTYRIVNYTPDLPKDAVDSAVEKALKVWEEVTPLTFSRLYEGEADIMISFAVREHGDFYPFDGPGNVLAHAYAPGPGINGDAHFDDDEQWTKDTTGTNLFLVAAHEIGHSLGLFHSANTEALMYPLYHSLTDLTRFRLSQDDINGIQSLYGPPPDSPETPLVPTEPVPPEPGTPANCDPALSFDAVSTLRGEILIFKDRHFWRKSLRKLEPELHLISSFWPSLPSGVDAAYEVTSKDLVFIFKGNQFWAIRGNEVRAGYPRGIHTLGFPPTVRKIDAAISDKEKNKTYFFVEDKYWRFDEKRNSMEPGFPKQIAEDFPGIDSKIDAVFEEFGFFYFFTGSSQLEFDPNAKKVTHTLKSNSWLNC

Cytochrome P450 2C9, sequence (P11712 whole entry): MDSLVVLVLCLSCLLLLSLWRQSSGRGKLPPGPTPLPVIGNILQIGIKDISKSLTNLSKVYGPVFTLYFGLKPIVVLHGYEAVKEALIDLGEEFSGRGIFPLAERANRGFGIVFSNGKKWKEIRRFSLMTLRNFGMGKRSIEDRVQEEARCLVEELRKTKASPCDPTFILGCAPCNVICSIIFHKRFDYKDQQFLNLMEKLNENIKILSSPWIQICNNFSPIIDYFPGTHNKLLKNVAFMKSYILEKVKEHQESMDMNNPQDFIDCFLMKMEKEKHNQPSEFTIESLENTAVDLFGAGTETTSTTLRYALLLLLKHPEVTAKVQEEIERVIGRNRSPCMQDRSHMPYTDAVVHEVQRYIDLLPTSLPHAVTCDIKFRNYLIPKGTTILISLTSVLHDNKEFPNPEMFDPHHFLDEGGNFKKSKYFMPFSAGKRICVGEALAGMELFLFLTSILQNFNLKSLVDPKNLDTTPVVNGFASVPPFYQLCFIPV
72 kDa type IV collagenase, sequence (P08253 whole entry): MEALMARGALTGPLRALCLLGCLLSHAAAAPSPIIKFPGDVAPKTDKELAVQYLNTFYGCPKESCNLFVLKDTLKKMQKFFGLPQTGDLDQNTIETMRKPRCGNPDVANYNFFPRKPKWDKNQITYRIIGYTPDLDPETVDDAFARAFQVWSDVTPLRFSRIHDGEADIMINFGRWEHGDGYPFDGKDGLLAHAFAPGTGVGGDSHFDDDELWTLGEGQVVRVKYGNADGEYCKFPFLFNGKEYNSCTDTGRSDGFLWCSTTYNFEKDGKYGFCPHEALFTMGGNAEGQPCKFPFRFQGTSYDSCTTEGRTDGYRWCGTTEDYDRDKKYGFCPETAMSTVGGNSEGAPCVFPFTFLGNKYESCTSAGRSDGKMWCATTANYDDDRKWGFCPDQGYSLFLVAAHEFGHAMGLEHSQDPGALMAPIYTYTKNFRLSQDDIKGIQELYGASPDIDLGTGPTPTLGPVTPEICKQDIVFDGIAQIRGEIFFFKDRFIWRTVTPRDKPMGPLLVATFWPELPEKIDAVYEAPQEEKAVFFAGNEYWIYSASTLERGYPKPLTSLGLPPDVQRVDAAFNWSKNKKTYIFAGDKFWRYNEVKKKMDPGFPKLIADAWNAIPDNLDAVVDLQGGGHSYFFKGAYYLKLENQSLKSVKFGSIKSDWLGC
Macrophage metalloelastase, sequence (P39900 whole entry): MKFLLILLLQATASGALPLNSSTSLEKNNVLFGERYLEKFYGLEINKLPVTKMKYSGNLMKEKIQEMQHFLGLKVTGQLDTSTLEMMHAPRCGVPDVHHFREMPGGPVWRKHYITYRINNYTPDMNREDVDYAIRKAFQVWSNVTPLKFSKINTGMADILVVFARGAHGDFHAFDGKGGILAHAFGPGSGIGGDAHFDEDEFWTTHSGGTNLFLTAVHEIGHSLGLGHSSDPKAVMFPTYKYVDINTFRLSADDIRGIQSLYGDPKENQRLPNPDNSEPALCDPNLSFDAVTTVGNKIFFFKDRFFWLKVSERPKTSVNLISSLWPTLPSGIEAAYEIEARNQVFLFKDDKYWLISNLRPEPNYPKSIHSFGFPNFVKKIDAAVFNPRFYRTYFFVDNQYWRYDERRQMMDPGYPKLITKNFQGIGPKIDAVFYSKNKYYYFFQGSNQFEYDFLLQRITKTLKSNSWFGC
Cytochrome P450 2C19, sequence (P33261 whole entry): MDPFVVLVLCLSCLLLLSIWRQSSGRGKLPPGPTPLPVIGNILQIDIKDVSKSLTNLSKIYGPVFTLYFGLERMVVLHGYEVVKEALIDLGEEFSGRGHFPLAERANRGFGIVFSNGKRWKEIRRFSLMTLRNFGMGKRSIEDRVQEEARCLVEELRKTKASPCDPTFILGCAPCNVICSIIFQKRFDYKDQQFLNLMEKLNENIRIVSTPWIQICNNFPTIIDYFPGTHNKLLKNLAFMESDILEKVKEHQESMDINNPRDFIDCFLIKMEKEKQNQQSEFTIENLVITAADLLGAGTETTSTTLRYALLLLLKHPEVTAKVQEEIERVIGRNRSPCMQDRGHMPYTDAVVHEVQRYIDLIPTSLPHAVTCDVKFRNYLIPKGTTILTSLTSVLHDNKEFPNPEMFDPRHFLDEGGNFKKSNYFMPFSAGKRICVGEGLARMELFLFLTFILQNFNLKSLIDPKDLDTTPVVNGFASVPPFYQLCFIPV
Matrix metalloproteinase-9, sequence (P14780 whole entry): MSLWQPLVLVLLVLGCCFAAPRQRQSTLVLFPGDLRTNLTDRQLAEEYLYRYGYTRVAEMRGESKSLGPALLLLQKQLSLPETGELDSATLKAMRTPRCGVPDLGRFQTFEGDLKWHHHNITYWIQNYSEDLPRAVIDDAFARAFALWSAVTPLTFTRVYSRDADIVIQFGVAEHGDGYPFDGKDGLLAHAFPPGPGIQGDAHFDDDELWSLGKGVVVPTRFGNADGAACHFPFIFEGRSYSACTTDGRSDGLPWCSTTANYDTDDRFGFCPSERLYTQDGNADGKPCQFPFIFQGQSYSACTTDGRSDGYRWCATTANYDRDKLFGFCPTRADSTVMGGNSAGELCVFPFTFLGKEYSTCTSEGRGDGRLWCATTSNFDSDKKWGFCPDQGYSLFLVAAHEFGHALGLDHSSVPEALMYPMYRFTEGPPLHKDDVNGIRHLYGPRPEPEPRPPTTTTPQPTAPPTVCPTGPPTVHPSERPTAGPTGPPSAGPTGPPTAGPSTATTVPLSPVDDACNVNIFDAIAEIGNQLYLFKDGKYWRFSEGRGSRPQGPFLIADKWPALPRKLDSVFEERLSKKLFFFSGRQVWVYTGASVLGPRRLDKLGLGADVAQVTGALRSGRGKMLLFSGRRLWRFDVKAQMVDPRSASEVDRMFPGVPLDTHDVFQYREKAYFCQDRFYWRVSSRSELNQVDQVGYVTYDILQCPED
Cytochrome P450 2D6, sequence (P10635 whole entry): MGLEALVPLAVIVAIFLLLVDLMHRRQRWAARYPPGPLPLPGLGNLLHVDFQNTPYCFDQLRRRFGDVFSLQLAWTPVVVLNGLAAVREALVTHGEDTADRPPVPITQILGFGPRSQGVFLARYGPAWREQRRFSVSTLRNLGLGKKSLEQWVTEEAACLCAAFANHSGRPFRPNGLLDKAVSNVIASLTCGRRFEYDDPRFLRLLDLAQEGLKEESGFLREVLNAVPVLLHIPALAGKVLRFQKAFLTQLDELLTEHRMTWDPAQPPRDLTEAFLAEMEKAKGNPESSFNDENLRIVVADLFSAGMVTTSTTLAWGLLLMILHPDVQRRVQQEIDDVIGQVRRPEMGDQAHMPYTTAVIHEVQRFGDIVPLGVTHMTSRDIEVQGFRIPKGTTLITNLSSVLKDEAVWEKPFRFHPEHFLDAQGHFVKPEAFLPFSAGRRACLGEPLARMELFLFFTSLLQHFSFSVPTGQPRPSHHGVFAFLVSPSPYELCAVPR
Cytochrome P450 3A4, sequence (P08684 whole entry): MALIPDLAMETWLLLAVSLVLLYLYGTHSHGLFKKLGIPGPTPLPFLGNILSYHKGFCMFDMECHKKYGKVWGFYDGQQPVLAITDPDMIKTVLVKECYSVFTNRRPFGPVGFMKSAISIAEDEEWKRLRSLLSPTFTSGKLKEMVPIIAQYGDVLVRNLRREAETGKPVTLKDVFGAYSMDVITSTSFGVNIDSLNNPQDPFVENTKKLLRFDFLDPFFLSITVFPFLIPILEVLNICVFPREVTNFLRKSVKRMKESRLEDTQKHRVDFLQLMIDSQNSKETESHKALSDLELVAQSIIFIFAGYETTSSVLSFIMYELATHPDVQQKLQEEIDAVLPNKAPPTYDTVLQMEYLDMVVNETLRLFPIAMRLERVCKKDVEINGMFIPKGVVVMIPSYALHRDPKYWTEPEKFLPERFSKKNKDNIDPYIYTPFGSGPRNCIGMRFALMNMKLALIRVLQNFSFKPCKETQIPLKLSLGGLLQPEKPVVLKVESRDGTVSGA

Structure (SMILES): O=C(NC1CCCS(=O)(=O)C1)c1ccc(Oc2ccc(C#C[C@]3(O)CN4CCC3CC4)cc2)cc1 (single isomer, unassigned; diastereomer 1)
- IC50 [1]: > 10 µM
- IC50 [2]: 5.1 µM
- CLH [3]: 2.9 µL/min
- IC50 [4]: > 10 µM
- F [5]: 35%
- IC50 [6]: > 10 µM
- logD [7]: 1.4
- EC50 [8]: 116 µM
- fraction unbound [9]: 0.33
- fraction unbound [10]: 0.27
- bioavailability [11]: 21%
- IC50 [12]: > 10 µM
- half-life [13]: 5 h
- Papp A→B at 10 µM [14]: 1.3 ×10⁻⁶ cm/s
- clearance [15]: 13 mL/min/kg
- IC50 [16]: > 10 µM
- Vd [17]: 3.9 L/kg
- Papp B→A at 10 µM [18]: 43.5 ×10⁻⁶ cm/s
- IC50 [19]: > 10 µM
- hepatocyte CLint [20]: < 2 µL/min/1e6 cells
- fraction unbound [21]: 0.25
- IC50 [22]: > 10 µM
- half-life [23]: 4.8 h
- dose excreted [24]: < 1%
- IC50 [25]: > 10 µM
- Vd [26]: 5.9 L/kg
- IC50 [27]: > 10 µM
- Therm_solubility [28]: 160 µM
- IC50 [29]: > 10 µM
